In US7109193B2, “Tricyclic diazepines tocolytic oxytocin receptor antagonists” (Wyeth, priority 2001, dated 2006) one finds inhibition data, which are given here for 23 compounds.

The experiment deals with T1, human oxytocin receptor (Homo sapiens, UniProt P30559).
T1 construct: host or cells: CHO cells (pcDNA3.1 vector)
T1 sequence (P30559 1-389): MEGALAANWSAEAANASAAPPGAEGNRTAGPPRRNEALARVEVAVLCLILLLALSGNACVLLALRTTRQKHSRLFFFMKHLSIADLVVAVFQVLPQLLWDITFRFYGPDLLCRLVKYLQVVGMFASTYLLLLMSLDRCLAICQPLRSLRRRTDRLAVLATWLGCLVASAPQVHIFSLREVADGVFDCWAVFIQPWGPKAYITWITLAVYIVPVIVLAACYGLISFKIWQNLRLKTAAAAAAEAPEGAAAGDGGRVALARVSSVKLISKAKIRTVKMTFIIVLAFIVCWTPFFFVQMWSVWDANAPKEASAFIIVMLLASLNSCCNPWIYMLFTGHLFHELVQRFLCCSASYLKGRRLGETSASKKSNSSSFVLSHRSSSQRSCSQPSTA
The experiment in a line: Oxytocin binding in Chinese Hamster Ovary cell membranes expressing human oxytocin receptors. The settings on record: 100 nM, CHO cell membranes, [3H]oxytocin, values without parentheses, read-out: OT % inhibition @ 100% nM.

For the compound `COc1cc(C(=O)N2Cc3ccc(C(=O)N4CCN(CCN5CCOCC5)CC4)n3Cc3ccccc32)ccc1-c1cccc2ccccc12` [Example 213, {10-[3-Methoxy-4-(1-naphthyl)benzoyl]-10,11-dihydro-5H-pyrrolo[2,1-c][1,4]benzodiazepin-3-yl}{4-[2-(4-morpholinyl)ethyl]-1-piperazinyl}methanone], the inhibition at 0.1 µM is 70%. For `COc1ccccc1-c1ccc(C(=O)N2Cc3ccc(C(=O)N(C)C4CCN(C)C4)n3Cc3ccccc32)cc1` (centres unmarked) [Example 187, 10-[(2′-Methoxy[1,1′-biphenyl]-4-yl)carbonyl]-N-methyl-N-(1-methyl-3-pyrrolidinyl)-10,11-dihydro-5H-pyrrolo[2,1-c][1,4]benzodiazepine-3-carboxamide], the inhibition at 0.1 µM is 100%.

On to `COc1cc(-c2ccccc2C)c(Cl)cc1C(=O)N1Cc2ccc(C(=O)N(C)C3CCN(C)CC3)n2Cc2ccccc21` [Example 180, 10-[(6-Chloro-3-methoxy-2′-methyl[1,1′-biphenyl]-4-yl)carbonyl]-N-methyl-N-(1-methyl-4-piperidinyl)-10,11-dihydro-5H-pyrrolo[2,1-c][1,4]benzodiazepine-3-carboxamide], for which the inhibition at 0.1 µM was 98%. Take `COc1cc(C(=O)N2Cc3ccc(C(=O)NCCC4CCCN4C)n3Cc3ccccc32)ccc1-c1ccccc1C` (centres unmarked) [Example 167, 10-[(2-Methoxy-2′-methyl[1,1′-biphenyl]-4-yl)carbonyl]-N-[2-(1-methyl-2-pyrrolidinyl)ethyl]-10,11-dihydro-5H-pyrrolo[2,1-c][1,4]benzodiazepine-3-carboxamide]: the inhibition at 0.1 µM is 60%. With `COc1ccccc1-c1ccc(C(=O)N2Cc3ccc(C(=O)NCCC4CCCN4C)n3Cc3ccccc32)cc1OC` (centres unmarked) [Example 171, 10-[(2,2′-Dimethoxy[1,1′-biphenyl]-4-yl)carbonyl]-N-[2-(1-methyl-2-pyrrolidinyl)ethyl]-10,11-dihydro-5H-pyrrolo[2,1-c][1,4]benzodiazepine-3-carboxamide], the inhibition at 0.1 µM was 40%.

As for `COc1ccccc1-c1ccc(C(=O)N2Cc3ccc(C(=O)N4CCN(C(C)C)CC4)n3Cc3ccccc32)cc1OC` [Example 241, {10-[(2,2′-Dimethoxy[1,1-biphenyl]4-yl)carbonyl]-10,11-dihydro-5H-pyrrolo[2,1-c][1,4]benzodiazepin-3-yl}(4-isopropyl-1-piperazinyl)methanone], the inhibition at 0.1 µM turned out to be 51%. Under `COc1cccc(-c2ccc(C(=O)N3Cc4ccc(C(=O)N5CCN(CCN6CCOCC6)CC5)n4Cc4ccccc43)cc2C)c1` [Example 208, {10-[(3′-Methoxy-2-methyl[1,1′-biphenyl]-4-yl)carbonyl]-10,11-dihydro-5H-pyrrolo[2,1-c][1,4]benzodiazepin-3-yl}{4-[2-(4-morpholinyl)ethyl]-1-piperazinyl}methanone] stands 81%. The same measure for `COc1cc(-c2ccccc2C)c(Cl)cc1C(=O)N1Cc2ccc(C(=O)N3CCN(C(C)C)CC3)n2Cc2ccccc21` [Example 238, {10-[(6-Chloro-3-methoxy-2′-methyl[1,1′-biphenyl]-4-yl)carbonyl]-10,11-dihydro-5H -pyrrolo[2,1-c][1,4]benzodiazepin-3-yl}(4-isopropyl-1-piperazinyl)methanone]: 79%. The same measure for `COc1ccccc1-c1ccc(C(=O)N2Cc3ccc(C(=O)N(C)C4CCN(C)CC4)n3Cc3ccccc32)cc1C` [Example 175, 10-[(2′-Methoxy-2-methyl[1,1′-biphenyl]-4-yl)carbonyl]-N-methyl-N-(1-methyl-4-piperidinyl)-10,11-dihydro-5H-pyrrolo[2,1-c][1,4]benzodiazepine-3-carboxamide]: 98%; for `CN(C)CCN1CCN(C(=O)c2ccc3n2Cc2ccccc2N(C(=O)c2ccc(-c4cccc5ccccc45)cc2Cl)C3)CC1` [Example 205, {10-[2-Chloro-4-(1-naphthyl)benzoyl]-10,11-dihydro-5H-pyrrolo[2,1-c][1,4]benzodiazepin-3-yl}{4-[2-(dimethylamino)ethyl]-1-piperazinyl}methanone]: 24%; for `COc1cc(C(=O)N2Cc3ccc(C(=O)N(C)C4CCN(C)C4)n3Cc3ccccc32)ccc1-c1ccccc1C` (centres unmarked) [Example 189, 10-[(2-Methoxy-2′-methyl[1,1′-biphenyl]-4-yl)carbonyl]-N-methyl-N-(1-methyl-3-pyrrolidinyl)-10,11-dihydro-5H-pyrrolo[2,1-c][1,4]benzodiazepine-3-carboxamide]: 99%. For `Cc1ccccc1-c1ccc(C(=O)N2Cc3ccc(C(=O)NCCC4CCCN4C)n3Cc3ccccc32)cc1` (centres unmarked) [Example 166, 10-[(2′-Methyl[1,1′-biphenyl]-4-yl)carbonyl]-N-[2-(1-methyl-2-pyrrolidinyl)ethyl]-10,11-dihydro-5H-pyrrolo[2,1-c][1,4]benzodiazepine-3-carboxamide], the inhibition at 0.1 µM is 27%. Under `COc1cccc(-c2cc(OC)c(C(=O)N3Cc4ccc(C(=O)NCCC5CCCN5C)n4Cc4ccccc43)cc2Cl)c1` (centres unmarked) [Example 169, 10-[(6-Chloro-3,3′-dimethoxy[1,1′-biphenyl]-4-yl)carbonyl]-N-[2-(1-methyl-2-pyrrolidinyl)ethyl]-10,11-dihydro-5H-pyrrolo[2,1-c][1,4]benzodiazepine-3-carboxamide] stands 36%; under `COc1cccc(-c2ccc(C(=O)N3Cc4ccc(C(=O)N5CCN(CCN6CCOCC6)CC5)n4Cc4ccccc43)cc2OC)c1` [Example 211, {10-[(2,3′-Dimethoxy[1,1′-biphenyl]-4-yl)carbonyl]-10,11-dihydro-5H-pyrrolo[2,1-c][1,4]benzodiazepin-3-yl}{4-[2-(4-morpholinyl)ethyl]-1-piperazinyl}methanone], 87%; under `COc1ccccc1-c1ccc(C(=O)N2Cc3ccc(C(=O)NCCC4CCCN4C)n3Cc3ccccc32)cc1C` (centres unmarked) [Example 162, 10-[(2′-Methoxy-2-methyl[1,1′-biphenyl]-4-yl)carbonyl]-N-[2-(1-methyl-2-pyrrolidinyl)ethyl]-10,11-dihydro-5H-pyrrolo[2,1-c][1,4]benzodiazepine-3-carboxamide], 71%. Under `COc1cc(-c2ccccc2C)c(Cl)cc1C(=O)N1Cc2ccc(C(=O)NCCC3CCCN3C)n2Cc2ccccc21` (centres unmarked) [Example 168, 10-[(6-Chloro-3-methoxy-2′-methyl[1,1′-biphenyl]-4-yl)carbonyl]-N-[2-(1-methyl-2-pyrrolidinyl)ethyl]-10,11-dihydro-5H-pyrrolo[2,1-c][1,4]benzodiazepine-3-carboxamide] stands 52%; under `Cc1ccccc1-c1ccc(C(=O)N2Cc3ccc(C(=O)N4CCN(C(C)C)CC4)n3Cc3ccccc32)cc1C` [Example 233, {10-[(2,2′-Dimethyl[1,1′-biphenyl]-4-yl)carbonyl]-10,11-dihydro-5H-pyrrolo[2,1-c][1,4]benzodiazepin-3-yl}(4-isopropyl-1-piperazinyl)methanone], 86%; under `COc1ccccc1-c1ccc(C(=O)N2Cc3ccc(C(=O)N(C)C4CCN(C)C4)n3Cc3ccccc32)cc1C` (centres unmarked) [Example 185, 10-[(2′-Methoxy-2-methyl[1,1′-biphenyl]-4-yl)carbonyl]-N-methyl-N-(1-methyl-3-pyrrolidinyl)-10,11-dihydro-5H-pyrrolo[2,1-c][1,4]benzodiazepine-3-carboxamide], 95%. Under `Cc1ccccc1-c1ccc(C(=O)N2Cc3ccc(C(=O)N4CCN(CCN5CCOCC5)CC4)n3Cc3ccccc32)cc1` [Example 209, {10-[(2′-Methyl[1,1′-biphenyl]-4-yl)carbonyl]-10,11-dihydro-5H-pyrrolo[2,1-c][1,4]benzodiazepin-3-yl}{4-[2-(4-morpholinyl)ethyl]-1-piperazinyl}methanone] stands 81%. As to `C=CCN1CCN(C(=O)c2ccc3n2Cc2ccccc2N(C(=O)c2ccc(-c4ccccc4C(F)(F)F)c(C)c2)C3)CC1` [Example 230, (4-Allyl-1-piperazinyl)(10-{[2-methyl-2′-(trifluoromethyl)[1,1′-biphenyl]-4-yl]carbonyl}-10,11-dihydro-5H-pyrrolo[2,1-c][1,4]benzodiazepin-3-yl)methanone], the inhibition at 0.1 µM is 67%. Under `COc1cc(C(=O)N2Cc3ccc(C(=O)N4CCN(CCN5CCOCC5)CC4)n3Cc3ccccc32)ccc1-c1ccccc1C` [Example 210, {10-[(2-Methoxy-2′-methyl[1,1′-biphenyl]-4-yl)carbonyl]-10,11-dihydro-5H-pyrrolo[2,1-c][1,4]benzodiazepin-3-yl}{4-[2-(4-morpholinyl)ethyl]-1-piperazinyl}methanone] stands 82%. Under `Cc1ccccc1-c1ccc(C(=O)N2Cc3ccc(C(=O)N4CCN(CCN(C)C)CC4)n3Cc3ccccc32)cc1` [Example 200, {4-[2-(Dimethylamino)ethyl]-1-piperazinyl}{10-[(2′-methyl[1,1′-biphenyl]-4-yl)carbonyl]-10,11-dihydro-5H-pyrrolo[2,1-c][1,4]benzodiazepin-3-yl}methanone] stands 87%; under `COc1cc(C(=O)N2Cc3ccc(C(=O)N4CCN(CCN(C)C)CC4)n3Cc3ccccc32)ccc1-c1cccc2ccccc12` [Example 203, {4-[2-(Dimethylamino)ethyl]-1-piperazinyl}{10-[3-methoxy-4-(1-naphthyl)benzoyl]-10,11-dihydro-5H-pyrrolo[2,1-c][1,4]benzodiazepin-3-yl}methanone], 62%.

In general, inhibition refers to how much of the control response was suppressed.
